Data from PMC5748279, “Novel Antitubercular 6-Dialkylaminopyrimidine Carboxamides from Phenotypic Whole-Cell High Throughput Screening of a SoftFocus Library: Structure–Activity Relationship and Target Identification Studies” (Journal of Medicinal Chemistry, 2017).
Converted amounts (≈) assume the structure as drawn. “Also recorded” adds a separate entry of the source. Read-outs that look alike come from different tables or passages of the source.

Legend:
in vitro [1] = type: in vitro ADME; conditions: human, plasma; PPB assay; read-out: free fraction in human plasma
Method: (§1) The kinetic solubility assay was performed using a miniaturised shake flask method. 10 mM stock […]
(§2) DMSO, and to spike (1:50) duplicate aqueous samples of FaSSIF (simulating fasting state biorelevant media, pH 6.5), with a final DMSO concentration of 2%. After shaking for 2 hours at 25 °C, the solutions were filtered and analysed by means of HPLC,DAD (Agilent 1200 Rapid Resolution HPLC with a diode array detector). Best fit calibration curves were constructed using the calibration standards, which were used to determine the aqueous samples’ solubility.13
(§3) 4.2) Microsomal stability
The metabolic stability assay was performed in duplicate in a 96,well micro titre plate. […]
the cofactor NADPH (1 mM). […] Test compounds in the supernatant were analysed by means of LC,MS/MS (Agilent Rapid Resolution HPLC, AB SCIEX 4000 QTRAP MS) for the disappearance of parent compound. […]
and ultracentrifuged for 4 hours (42000 rpm, 37 °C, Beckman Optima L,80XP). Analyte concentration of all compounds and sample types were determined by means of LC,MS/MS (Agilent Rapid Resolution HPLC, AB SCIEX 4000 QTRAP MS). […]
The lipophilicity assay was performed in triplicate using a shake,flask procedure. […] The samples were analysed by HPLC,DAD (Agilent 1200 Rapid Resolution HPLC with a diode array detector) and the amount of compound in the buffer and n, octanol were used to determine the partition coefficient, LogD7.4.15 […]

physchem [2] = type: physicochemical
Method: as §1, §2, §3
(§4) The metabolic stability assay was performed in duplicate in a 96,well micro titre plate. The test compounds (0.1 µM) were incubated individually in mouse, rat and pooled human liver […]
(§5) the cofactor NADPH (1 mM). Reactions were quenched by adding 300 µL of ice cold acetonitrile containing internal standard (carbamazepine, 0.0236 µg/mL). Test compounds in the supernatant were analysed by means of LC,MS/MS (Agilent Rapid Resolution HPLC, AB SCIEX 4000 QTRAP MS) for the disappearance of parent compound. Metabolite searches were not conducted during the metabolic stability assay.14
(§6) 4.3) Plasma protein binding (PPB) assay
The plasma protein binding assay was performed in a 96,well micro titre plate with pooled human plasma, spiked with test compound (5 µM). An aliquot was immediately removed and quenched using ice cold acetonitrile containing internal standard (carbamazepine, 0.0236 µg/mL), and placed in the freezer. This served as the total concentration sample. After pre,incubation (37 °C for 1 hour) duplicate aliquots of the spiked plasma were transferred to ultra,centrifugation tubes, […]

mice = assay: Toxicity observed in mice on oral dosing; type: in vivo; conditions: higher doses
[3] = type: in vitro ADME
Method: and ultracentrifuged for 4 hours (42000 rpm, 37 °C, Beckman Optima L,80XP). Analyte concentration of all compounds and sample types were determined by means of LC,MS/MS (Agilent Rapid Resolution HPLC, AB SCIEX 4000 QTRAP MS).
4.4) Lipophilicity (LogD7.4)
The lipophilicity assay was performed in triplicate using a shake,flask procedure. 10 mM stock solutions of each test compound were used to spike (100 µM) a 1:1 mixture of phosphate buffer (pH 7.4) and n,octanol. The solutions were shaken vigorously (1500 rpm) on an orbital shaker for 3 hours at room temperature. Thereafter the samples were centrifuged in order to fully separate the two immiscible fluids. The samples were analysed by HPLC,DAD (Agilent 1200 Rapid Resolution HPLC with a diode array detector) and the amount of compound in the buffer and n, octanol were used to determine the partition coefficient, LogD7.4.15
4.5) Parallel Artificial Membrane Permeability Assay (PAMPA):
The PAMPA assay was performed in triplicate in 96,well MultiScreen Filter plates (Millipore, 0.4 µM PCTE Membrane). Membrane filters were pre,coated with 5% hexadecane in hexane and allowed to dry prior to the assay. Membrane integrity marker, Lucifer yellow was added to the apical wells of the pre,coated MultiScreen plate donor/drug solutions containing test compound.
Phosphate buffer (pH7.4) was added to the 96,well acceptor plate. 10 mM test compound was used to spike (1 µM) the donor buffer at physiologically relevant pH's (pH 4, 6.5 and 8), the donor plate slotted into the acceptor plate and incubated (4 hours at room temperature) with gentle shaking (40,50 rpm). Following the incubation, sample from the acceptor wells and theoretical equilibrium wells were transferred to the analysis plate and matrix matched with blank donor buffer. Acetonitrile containing internal standard (carbamazepine, 0.0236 µg/mL) was added to all samples and they were analysed by LC,MS/MS (Agilent Rapid Resolution HPLC, AB SCIEX 4500 MS). The normalised (analyte/internal) peak areas were used to calculate the apparent permeability (Papp). Membrane integrity was assessed by calculating the Papp of Lucifer Yellow […]
chemosensitivity. […]. Thus only viable cells […]
formazan. Formazan crystals are dissolved in DMSO. The test samples were tested in triplicate on […]
experiment. […] Emetine was used […]
as the reference drug in all experiments. The initial concentration of emetine was 100 µg/mL, […]
lowest being 0.001 µg/mL. […] The […]
(§7) the cell viability (data not shown).
GraphPad Prism v.4 software. […]
(§8) expressing the full length hERG channel. Single cell ionic currents were measured in the […]

[4] = Caseum binding using surrogate caseum
in vivo = conditions: male, C57/BL6, mouse
physchem [5] = conditions: sheet table;; kinetic solubility, pH 7.4; aqueous buffer pH 7.4; Kinetic solubility at pH 7.4; read-out: Solubility (æM)
Method: as §1, §2, §3, §4, §5, §6
The plasma protein binding assay was performed in a 96,well micro titre plate with pooled human plasma, spiked with test compound (5 µM). […]

in vitro [6] = conditions: african green monkey; sheet table;; IC50 on Vero cells, MTT; read-out: Cytotoxicity (æM)
Method: (§9) chemosensitivity. […]. Thus only viable cells
(§10) formazan. Formazan crystals are dissolved in DMSO. The test samples were tested in triplicate on
(§11) experiment. […] Emetine was used
(§12) as the reference drug in all experiments. The initial concentration of emetine was 100 µg/mL,
(§13) lowest being 0.001 µg/mL. […] The
as §7
(§14) GraphPad Prism v.4 software.
Electrophysiologi Table 2 SAR on the Central Core a Kinetic solubility at pH 7.4. b IC50 on Vero cell lines.

[7] = test system: Mycobacterium tuberculosis (H37RvMa); assay: microbe, parasite or virus in culture; set-up: MIC99 by standard broth microdilution against M. tuberculosis H37Rv; conditions: sheet table;, MIC99, GAST/Fe medium, read-out: MIC99 GAST/Fe (æM)
[8] = test system: Mycobacterium tuberculosis (H37RvMa); assay: microbe, parasite or virus in culture; set-up: MIC99 by standard broth microdilution against M. tuberculosis H37Rv; conditions: read-out: MIC99 7H9/ADC (æM)
BCG_3193 (Rv3169) = BCG_3193 (Rv3169) (Mycobacterium bovis BCG, UniProt A0A1R3Y3B6); assay: biochemical; type: binding
[9] = target: Mycobacterium bovis BCG extract proteins (Mycobacterium bovis, UniProt A0A1R3Y5J0); assay: biochemical; type: binding
[10] = target: Mycobacterium bovis BCG extract proteins (Mycobacterium bovis BCG, UniProt A1KLS7); assay: biochemical; type: binding
[11] = target: Mycobacterium bovis BCG extract proteins (Mycobacterium bovis BCG, UniProt P9WGQ7); assay: biochemical; type: binding
[12] = target: Mycobacterium bovis BCG extract proteins (Mycobacterium bovis BCG, UniProt A1KQG9); assay: biochemical; type: binding
[13] = target: Mycobacterium bovis BCG extract proteins (Mycobacterium bovis BCG, UniProt O69687); assay: biochemical; type: binding
[14] = target: Mycobacterium bovis BCG extract proteins (Mycobacterium bovis BCG, UniProt A0A1R3Y5K6); assay: biochemical; type: binding
[15] = test system: Mycobacterium bovis BCG extract proteins; assay: biochemical; type: binding
[16] = target: Mycobacterium bovis BCG extract proteins (Mycobacterium bovis BCG, UniProt A0A1R3Y5H4); assay: biochemical; type: binding
[17] = target: Mycobacterium bovis BCG extract proteins (Mycobacterium bovis BCG, UniProt A0A1R3Y5J1); assay: biochemical; type: binding
[18] = target: Mycobacterium bovis BCG extract proteins (Mycobacterium bovis BCG, UniProt P0A4Z9); assay: biochemical; type: binding
[19] = target: Mycobacterium bovis BCG extract proteins (Mycobacterium bovis BCG, UniProt A0A1R3Y5N8); assay: biochemical; type: binding
[20] = target: Mycobacterium bovis BCG extract proteins (Mycobacterium bovis BCG, UniProt A0A0H3M9Z0); assay: biochemical; type: binding
[21] = target: Mycobacterium bovis BCG extract proteins (Mycobacterium bovis BCG, UniProt P9WKC7); assay: biochemical; type: binding
[22] = target: Mycobacterium bovis BCG extract proteins (Mycobacterium bovis BCG, UniProt A0A1R3Y6U4); assay: biochemical; type: binding
BCG_3827 (Rv3768) = type: binding, Mycobacterium bovis BCG
[23] = test system: PiniB-LUX reporter (Mtb cell wall biosynthesis); type: cell-based; conditions: luminescence over 7 days, INH control
[24] = test system: PrecA-LUX reporter (genotoxic compounds); type: cell-based; conditions: luminescence over 7 days, CIPRO control
[25] = test system: cytochrome bd oxidase knockout mutant strain (cydKO); type: cell-based; conditions: 7H9 GLU ADC medium
Vero cell lines = type: cell-based, African green monkey; conditions: read-out: Cytotoxicity (IC50 on Vero cell lines)
Method: as §9, §10, §11, §12, §13, §7, §14, §8

[26] = test system: Mycobacterium tuberculosis (H37RvMa); assay: microbe, parasite or virus in culture; type: cell-based; conditions: for MIC99 7H9/ADC: 7H9/ADC medium; for MIC99 GAST/Fe: GAST/Fe medium

Compound: CN(Cc1ccc(C(F)(F)F)nc1)c1cc(C(=O)Nc2nncs2)ncn1 [Compound 52, 6-(Methyl((6-(trifluoromethyl)pyridin-3-yl)methyl)amino)-N-(1,3,4-thiadiazol-2-yl)pyrimidine-4-carboxamide]
- fraction unbound at 4 h, 5 µM (in vitro [1]): ≤ 0.3
- solubility at 2 h (physchem [2]; pH 6.5, fasted-state simulated intestinal fluid, read-out: FassiF solubility at pH 6.5): > 100 µM
- solubility kinetic at 2 h (physchem [2]; pH 7.4, pH 7.4): > 100 µM
- toxicity to mice (mice): toxic to mice when dosed orally above 50 mg/kg
- PAMPA log Papp [3]: –3.9
- caseum distribution unbound [4]: 3.6%
- AUC(0-inf) at 24 h (in vivo; iv, 5 mg/kg): 35.1 µM·h
- clearance at 24 h (in vivo; iv, 5 mg/kg): 6.6 mL/min/kg
- AUC(0-inf) at 24 h (in vivo; po, 20 mg/kg): 93.6 µM·h
- half-life (in vivo; po, 20 mg/kg): 3 h

Compound: CC(=O)N1CCN(c2ccc(NC(=O)c3cc(N(C)Cc4ccc(C(F)(F)F)nc4)ncn3)cn2)CC1 [compound 44]
- solubility at 2 h (physchem [5]): < 5 µM
- CC50 (in vitro [6]): > 50 µM
- MIC99 [7]: 2.3 µM (≈ 1.18 µg/mL)
- MIC99 [8]: 4.7 µM (≈ 2.42 µg/mL)

Compound: O=C(Nc1ccccc1)c1ccc(=O)n(Cc2ccc(F)cc2)c1 [Compound 25, 1-(4-Fluorobenzyl)-6-oxo-N-phenyl-1,6-dihydropyridine-3-carboxamide]
- binding of BCG_3193 to the compound beads in presence of free compound (BCG_3193 (Rv3169)): no effect
- IC50 ([9]; IC50): ≥ 30 µM
- IC50 ([9]; pIC50): ≥ 30.2 µM
- IC50 [10]: ≥ 30 µM
- pIC50 [10]: ≤ 4.52
- IC50 ([11]; IC50): ≥ 30 µM
- IC50 ([11]; pIC50): ≥ 30.2 µM
- IC50 [12]: ≥ 30 µM
- pIC50 [12]: ≤ 4.52
- IC50 [13]: ≥ 30 µM
- pIC50 [13]: ≤ 4.52
- IC50 ([14]; IC50): ≥ 30 µM
- IC50 ([14]; pIC50): ≥ 30.2 µM
- IC50 [15]: ≥ 30 µM
- pIC50 [15]: ≤ 4.52
- IC50 [16]: ≥ 30 µM
- pIC50 [16]: ≤ 4.52
- IC50 [17]: ≥ 30 µM
- pIC50 [17]: ≤ 4.52
- IC50 [18]: ≥ 30 µM
- pIC50 [18]: ≤ 4.52
- IC50 ([19]; IC50): ≥ 30 µM
- IC50 ([19]; pIC50): ≥ 30.2 µM
- IC50 [20]: ≥ 30 µM
- pIC50 [20]: ≤ 4.52
- IC50 ([21]; IC50): ≥ 30 µM
- IC50 ([21]; pIC50): ≥ 30.2 µM
- IC50 ([22]; IC50): ≥ 30 µM
- IC50 ([22]; pIC50): ≥ 30.2 µM
- IC50 (BCG_3827 (Rv3768)): ≥ 30 µM
- binding of BCG_3827 to the compound beads in presence of free compound (BCG_3827 (Rv3768)): no effect
- pIC50 (BCG_3827 (Rv3768)): ≤ 4.52
- relative abundance 10: Compound competition 0.029 µM 25 (BCG_3827 (Rv3768); 0.029 µM): 1.06
- relative abundance 9: Compound competition 0.117 µM 25 (BCG_3827 (Rv3768); 0.117 µM): 0.70
- relative abundance 8: Compound competition 0.47 µM 25 (BCG_3827 (Rv3768); 0.47 µM): 1.39
- relative abundance 7: Compound competition 1.88 µM 25 (BCG_3827 (Rv3768); 1.88 µM): 1.36
- relative abundance 6: Compound competition 7.5 µM 25 (BCG_3827 (Rv3768); 7.5 µM): 1.52
- relative abundance 5: Compound competition 30 µM 25 (BCG_3827 (Rv3768); 30 µM): 1.12

Compound: COc1ccc(NC(=O)c2cc(N(C)Cc3ccccc3)ncn2)cc1 [Compound 1, 6-(Benzyl(methyl)amino)-N-(4-methoxyphenyl)pyrimidine-4-carboxamide]
- PiniB-LUX reporter response [23]: did not elicit a positive response; also recorded: no response
- PrecA-LUX reporter response [24]: delayed (Day 3 onwards) induction of luminescence
- Δcyd 7H9 GLU ADC MIC99 [25]: > 20 µM

Compound: N-(4-(4-Acetylpiperazin-1-yl)phenyl)-6-(methyl((6-(trifluoromethyl)pyridin-3-yl)methyl)amino)pyrimidine-4-carboxamide [Compound 44]
- solubility kinetic at 2 h (physchem [2]; pH 7.4): <5 µM
- Solubility (physchem [2]; supplementary csv): <5 æM
- IC50 (Vero cell lines): > 50 µM
- MIC99 7H9/ADC [26]: 4.7 µM
- MIC99 7H9/ADC ([26]; supplementary csv): 4.7 æM
- MIC99 GAST/Fe [26]: 2.3 µM
- MIC99 GAST/Fe ([26]; supplementary csv): 2.3 æM
- MIC ([26]; medium not stated): < 5 µM
